Measured values as given in ChEMBL document CHEMBL4418282, “Compounds and methods for inhibiting fascin” (2017).

target: Fascin (Homo sapiens) (UniProt Q16658); test: Inhibition of purified fascin (unknown origin) assessed as reduction in bundle activity at 50 uM pre-incubated for 30 mins before polymerized actin addition and followed by Alexa fluro 488 phalloidin addition after 30 mins and measured after 1 hr under dark condition relative to control; conditions: not given

Row | inhibition [%] | Structure (SMILES)
1 | < 10 | O=[N+]([O-])c1cn(Cc2ccc(C(F)(F)F)cc2)c2ccc(Br)cc12
2 | < 10 | CCCC(=O)Nc1nn(Cc2ccc(C(F)(F)F)cc2)c2cncc(Cl)c12
3 | < 10 | O=C(Nc1nn(Cc2ccc(C(F)(F)F)cc2)c2ccccc12)c1ccc(Cl)cc1
4 | < 10 | FC(F)(F)c1ccc(Cn2nc(Br)c3ccccc32)cc1
5 | < 10 | N#Cc1ccccc1C(=O)Cc1nn(Cc2ccc(C(F)(F)F)cc2)c2ccccc12
6 | < 10 | CNc1nn(Cc2ccc(C(F)(F)F)cc2)c2cncc(Cl)c12
7 | < 10 | O=C(Nc1nn(Cc2ccc(C(F)(F)F)cc2)c2cncc(Cl)c12)c1ccoc1
8 | < 10 | Cc1ncsc1C(=O)Nc1nn(Cc2ccc(C#N)cc2)c2ccccc12
9 | < 10 | O=C(Nc1nn(Cc2ccc(C(F)(F)F)cc2)c2ccccc12)c1cccc(Cl)c1
10 | < 10 | Cc1nocc1C(=O)Nc1nn(Cc2ccc(C(F)(F)F)cc2)c2cncc(Cl)c12
11 | < 10 | Cc1occc1-c1nn(Cc2ccc(C(F)(F)F)cc2)c2ccccc12
12 | < 10 | FC(F)(F)c1ccc(Cn2nc(-c3cccc4ccccc34)c3ccccc32)cc1
13 | < 10 | Cc1ccc(-c2ccc(C(=O)Nc3nn(Cc4ccc(C(F)(F)F)cc4)c4ccccc34)o2)cc1
14 | < 10 | Cc1ccc(-c2nn(Cc3ccc(C(F)(F)F)cc3)c3ccccc23)o1
15 | < 10 | FC(F)(F)c1ccc(Cn2nc(-c3ccccc3)c3ccccc32)cc1
16 | < 10 | Cc1occc1C(=O)Nc1nn(Cc2ccc(C(F)(F)F)cc2)c2cncc(Cl)c12
17 | < 10 | O=[N+]([O-])c1cn(Cc2ccccc2)c2ccc(Br)cc12
18 | < 10 | CC(=O)Nc1nn(Cc2ccc(C(F)(F)F)cc2)c2cncc(Cl)c12
19 | < 10 | FC(F)(F)c1ccc(Cn2nc(-c3ccoc3)c3ccccc32)cc1

test system: 4T1; test: Antitumor activity against mouse 4T1 cells implanted in Balb/c mouse assessed as reduction in tumor growth in lungs at 100 mg/kg, administered daily for 2 weeks starting 7 days after tumor implantation and measured on day 28 by methylene blue staining based assay relative to control; format: functional; conditions: read-out: TGI

Row | Structure (SMILES) | inhibition in vivo at 100 mg/kg [%]
20 | Cc1ncsc1C(=O)Nc1nn(Cc2ccc(C(F)(F)F)cc2)c2ccccc12 | > 90
21 | Cc1occc1C(=O)Nc1nn(Cc2ccc(C(F)(F)F)cc2)c2ccccc12 [NP-G2-044] | > 90
